“And” between values parts separate entries of the source, which are not always exact repeats. Equal entries are not always repeated.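 Assay format: 96-well plates, 48-hour exposure. Abbreviation: GI50, concentration required for 50% inhibition of growth. TGI denotes the concentration required for complete inhibition of growth.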
What was measured:
Assay in all cases: growth of human tumour cells (NCI), 48 h
[1] = test system: PC-3 prostate
[2] = test system: SF-539 CNS
[3] = test system: SN12C renal
[4] = test system: SK-MEL-5 melanoma
[5] = test system: 786-0 renal
[6] = test system: M14 melanoma
[7] = test system: OVCAR-8 ovarian
[8] = test system: COLO 205 colon
[9] = test system: MOLT-4 leukemia
[10] = test system: T-47D breast

| Structure (SMILES) | TGI [1] | TGI [2] | TGI [3] | TGI [4] | TGI [5] | TGI [6] | TGI [7] | TGI [8] | TGI [9] [µM] | TGI [10] | GI50 [1] | GI50 [2] | GI50 [3] | GI50 [4] | GI50 [5] | GI50 [6] | GI50 [7] | GI50 [8] | GI50 [9] | GI50 [10] |
| --- | --- | --- | --- | --- | --- | --- | --- | --- | --- | --- | --- | --- | --- | --- | --- | --- | --- | --- | --- | --- |
| OCC1OC(N2CCN(C3OC(CO)C(O)C(O)C3O)CC2)C(O)C(O)C1O (stereo not drawn) | > 100 µM | > 100 µM | > 100 µM | > 100 µM | > 100 µM | > 100 µM | > 100 µM | > 100 µM | > 100 | > 100 µM | – | – | – | – | – | – | – | – | – | – |
| CC(=O)Nc1ccc2c(c1)[nH]c(=O)c1cc(NC(C)=O)ccc12 | > 100 µM | > 100 µM | > 100 µM | > 100 µM | > 100 µM | > 100 µM | > 100 µM | > 100 µM | 50 | > 100 µM | > 100 µM | > 100 µM | > 100 µM | > 100 µM | > 100 µM | > 100 µM | > 100 µM | > 100 µM | 20 µM | > 100 µM |
| CCN1C(=O)N(CC)C2C1NN=c1s/c(=C\c3ccc(Br)cc3)c(=O)n12 (stereo not drawn) | > 100 µM | 5.87 µM | > 100 µM | 1.84 µM | > 100 µM | > 100 µM | > 100 µM | – | > 100 | > 100 µM | 0.168 µM | 0.0759 µM | 0.512 µM | 0.118 µM | 0.163 µM | 0.138 µM | 0.416 µM | 0.258 µM | 0.392 µM | 5.11 µM |
| Nc1cc2c3ccccc3ccc2c2ccccc12 | > 100 µM | > 100 µM | > 100 µM | > 100 µM | > 100 µM | > 100 µM | > 100 µM | > 100 µM | > 100 | > 100 µM | 7.78 µM | > 51.2 µM | > 100 µM | 16.7 µM | > 100 µM | > 100 µM | > 44.6 µM | > 100 µM | > 100 µM | > 38.1 µM |
| O=C(Nc1ccc(-c2cn3ccccc3n2)cc1)c1cc(Br)ccc1O | > 100 µM | > 100 µM | > 100 µM | > 100 µM | > 100 µM | > 100 µM | > 100 µM | > 100 µM | > 100 | > 100 µM | – | – | – | – | – | – | – | – | – | – |
| Cc1ccccc1N=C(c1ccccc1)C1C(=O)c2ccccc2C1=O | 62 µM | > 100 µM | > 100 µM | 13.3 µM | 36 µM | 13.2 µM | > 100 µM | 38.5 µM | 35.7 | 36.5 µM | 18.9 µM | 12.1 µM | 19.9 µM | 2.41 µM | 7.05 µM | 2.67 µM | 15 µM | 13.8 µM | 9.98 µM | 4.12 µM |
| O=C1NC(=O)/C(=C/c2ccc3nccc(-c4ccncc4)c3c2)S1 | 2.9 µM | 1.58 µM | > 10 µM | 1.63 µM | 3.15 µM | 2.79 µM | > 10 µM | 3.67 µM | 9.91 | 0.432 µM | 0.282 µM | 0.294 µM | 0.396 µM | 0.419 µM | 0.345 µM | 0.365 µM | 0.517 µM | 0.454 µM | 0.645 µM | 0.0497 µM |
| O=C(COc1ccc(Cl)cc1Cl)NNc1ccc([N+](=O)[O-])cc1 | > 100 µM | > 100 µM | > 100 µM | > 100 µM | 61.2 µM | > 100 µM | > 100 µM | > 100 µM | > 100 | > 100 µM | > 100 µM | 99.8 µM | 80 µM | > 100 µM | 25.6 µM | > 100 µM | 98.9 µM | 95.7 µM | 81.6 µM | 43.3 µM |
| O=[N+]([O-])c1ccc(NC(c2ccccc2)c2ccc3cccnc3c2O)cc1 (stereo not drawn) | > 100 µM | > 31.9 µM | > 100 µM | 3.12 µM | – | > 100 µM | > 100 µM | > 100 µM | > 100 | > 100 µM | 0.586 µM | 0.499 µM | 0.935 µM | 0.4 µM | 0.363 µM | 0.308 µM | 0.435 µM | 0.448 µM | 0.344 µM | 0.633 µM |
| COC1C[C@H](O[C@@H]2C[C@H](O[C@@H]3C[C@H](O[C@@H]4C(=O)c5c(cc6cc(O[C@H]7C[C@@H](O[C@H]8C[C@@H](O)[C@H](O)C(C)O8)[C@H](O)C(C)O7)c(C)c(O)c6c5O)C[C@H]4C(OC)C(=O)[C@@H](O)[C@@H](C)O)OC(C)[C@H]3O)OC(C)[C@@H]2O)OC(C)[C@@H]1O (stereo partly drawn) | > 32.5 µM | 0.316 µM | > 32.5 µM | 0.175 µM | > 32.5 µM | 2.15 µM | > 32.5 µM | 0.147 µM | > 32.5 | 7 µM | 0.123 µM | 0.0736 µM | 0.113 µM | 0.0641 µM | 0.116 µM | 0.191 µM | 0.108 µM | 0.0571 µM | 0.111 µM | 0.0701 µM |
| CN(N=O)N1C(=O)SCC(c2ccccc2)(c2ccccc2)C1=O | > 100 µM | 65.5 µM | > 100 µM | > 100 µM | > 100 µM | > 100 µM | 60.2 µM | > 100 µM | > 100 | > 100 µM | – | – | – | – | – | – | – | – | – | – |
| CN1CCN(CCCn2c3c(sc4ncccc43)c(=O)n3nnc(-c4ccccc4)c23)CC1 | 4.03 µM | 3.33 µM | 28.8 µM | 3.05 µM | 10.7 µM | 9.5 µM | 4.31 µM | 9.07 µM | 2.86 | 39.4 µM | 1.61 µM | 1.71 µM | 14.5 µM | 1.65 µM | 5.81 µM | 4.67 µM | 1.88 µM | 4.33 µM | 0.889 µM | 20.2 µM |
| C=C1[C@H](O)C[C@@H](C(C)C(O)CC=C(C)C)[C@@H](O)[C@@H]2C(C)=CC[C@@H]12 (stereo partly drawn) | > 100 µM | > 100 µM | > 100 µM | > 100 µM | > 100 µM | > 100 µM | > 100 µM | > 100 µM | > 100 | > 100 µM | > 100 µM | > 100 µM | > 100 µM | > 100 µM | > 100 µM | > 100 µM | > 100 µM | > 100 µM | 35.1 µM | > 100 µM |
| O=C(Nc1cccc(Cl)c1)Nc1cc(C(F)(F)F)ccc1Cl | 32.8 µM | 11.4 µM | 11.5 µM | 3.51 µM | 12 µM | 9.68 µM | 7.75 µM | 3.68 µM | 11.4 | 31.3 µM | 3.86 µM | 3.18 µM | 3.01 µM | 1.92 µM | 2.86 µM | 2.97 µM | 3.16 µM | 2.09 µM | 3.12 µM | 3.53 µM |
| Cc1cccc(Nc2ncc(-c3ccccc3)o2)c1 | > 25 µM | > 25 µM | > 25 µM | > 25 µM | > 25 µM | > 25 µM | > 25 µM | > 25 µM | > 25 | > 25 µM | > 25 µM | > 25 µM | > 25 µM | > 25 µM | > 25 µM | > 25 µM | > 25 µM | > 25 µM | > 25 µM | > 25 µM |
| C#Cc1cccc(NC(=O)C2CCCCN2C(=O)CCl)c1 (stereo not drawn) | > 82.5 µM | 49.4 µM | 28.4 µM | 41.2 µM | 32 µM | 74.9 µM | > 82.5 µM | 34.7 µM | 52.9 | > 82.5 µM | 32.9 µM | 17.4 µM | 12.2 µM | 9.54 µM | 16.2 µM | 18.8 µM | 20.3 µM | 15.6 µM | 12 µM | 16 µM |
| CNC(=O)c1cc(Oc2ccc(NC(=O)Nc3ccc(Cl)c(C(F)(F)F)c3)cc2)ccn1 | 8.51 µM and 8.9 µM and 8.57 µM | > 10 µM and 9.07 µM and 4.82 µM | > 10 µM and 10.6 µM and 7.15 µM | 3.14 µM and 2.97 µM and 3.25 µM | > 10 µM and 9.4 µM and 13.2 µM | 7.98 µM and 5.03 µM and 5.96 µM | > 10 µM and 9.06 µM and 20.2 µM | 8.46 µM and 7.66 µM and 6.26 µM | – | > 10 µM and 7.43 µM and 7.85 µM | 2.2 µM and 2.6 µM and 2.14 µM | 1.97 µM and 2.32 µM and 1.62 µM | 2.84 µM and 2.98 µM and 2.31 µM | 1.43 µM and 1.61 µM and 1.57 µM | 4.04 µM and 3 µM and 3.42 µM | 2.15 µM and 2.11 µM and 2.18 µM | 3 µM and 2.91 µM and 3.03 µM | 2.57 µM and 2.9 µM and 2.33 µM | 2.38 µM and 3.15 µM and 2.87 µM | 1.82 µM and 2.31 µM and 1.87 µM |
| Cc1c(-c2c(F)cc(C(N)=O)c3[nH]c4c(c23)CC[C@H](C(C)(C)O)C4)cccc1-n1c(=O)c2cccc(F)c2n(C)c1=O | > 100 µM | 33.4 µM | > 100 µM | 16.2 µM | > 100 µM | 66.1 µM | > 100 µM | – | 6.58 | > 100 µM | 2.67 µM | 4.78 µM | 3.9 µM | 3.83 µM | 3.54 µM | 3.69 µM | 4.16 µM | – | 1.77 µM | 3.39 µM |
| Nc1ncnc2c1ncn2Cc1ccc(CCl)cc1 | 73.1 µM | 38.4 µM | 35.6 µM | 28.5 µM | 73.6 µM | 60.5 µM | 31.5 µM | 31.4 µM | – | 27.4 µM | 20.8 µM | 16.7 µM | 21.2 µM | 15.2 µM | 27.5 µM | 25.2 µM | 15.5 µM | 14.2 µM | – | 8 µM |
